Legend:
CCRF-CEM = assay: NCI-60 SRB screen; format: cell-based; conditions: Homo sapiens, single dose 10^−5 M, Leukaemia, read-out: Growth inhibition (%)
HL-60(TB) = assay: NCI-60 SRB screen; format: cell-based, human; conditions: Homo sapiens; single dose 10^−5 M; HL-60(TB), Leukaemia; read-out: Growth inhibition (%)
K-562 = assay: NCI-60 SRB screen; format: cell-based, human; conditions: Homo sapiens, K562; single dose 10^−5 M; K-562, Leukaemia; read-out: Growth inhibition (%)
MOLT-4 = assay: NCI-60 SRB screen; format: cell-based; conditions: Homo sapiens; single dose 10^−5 M; MOLT-4, Leukaemia; read-out: Growth inhibition (%)
SR = assay: NCI-60 SRB screen; format: cell-based; conditions: Homo sapiens, single dose 10^−5 M, Leukaemia, read-out: Growth inhibition (%)
A549/ATCC = assay: NCI-60 SRB screen; format: cell-based, human; conditions: Homo sapiens, single dose 10^−5 M, Non-small cell lung carcinoma, read-out: Growth inhibition (%)
EKVX = assay: NCI-60 SRB screen; format: cell-based, human; conditions: Homo sapiens, single dose 10^−5 M, Non-small cell lung carcinoma, read-out: Growth inhibition (%)
HOP-62 = assay: NCI-60 SRB screen; format: cell-based, human; conditions: Homo sapiens; single dose 10^−5 M; HOP-62, Non-small cell lung carcinoma; read-out: Growth inhibition (%)
HOP-92 = assay: NCI-60 SRB screen; format: cell-based, human; conditions: Homo sapiens; single dose 10^−5 M; HOP-92, Non-small cell lung carcinoma; read-out: Growth inhibition (%)
NCI-H226 = assay: NCI-60 SRB screen; format: cell-based, human; conditions: Homo sapiens; single dose 10^−5 M; NCI-H226, Non-small cell lung carcinoma; read-out: Growth inhibition (%)
NCI-H23 = assay: NCI-60 SRB screen; format: cell-based, human; conditions: Homo sapiens; single dose 10^−5 M; NCI-H23, Non-small cell lung carcinoma; read-out: Growth inhibition (%)
NCI-H322M = assay: NCI-60 SRB screen; format: cell-based, human; conditions: Homo sapiens, single dose 10^−5 M, Non-small cell lung carcinoma, read-out: Growth inhibition (%)
NCI-H460 = assay: NCI-60 SRB screen; format: cell-based, human; conditions: Homo sapiens; single dose 10^−5 M; NCI-H460, Non-small cell lung carcinoma; read-out: Growth inhibition (%)
NCI-H522 = assay: NCI-60 SRB screen; format: cell-based, human; conditions: Homo sapiens; single dose 10^−5 M; NCI-H522, Non-small cell lung carcinoma; read-out: Growth inhibition (%)
COLO 205 = assay: NCI-60 SRB screen; format: cell-based, human; conditions: Homo sapiens; single dose 10^−5 M; COLO 205, Colon cancer; read-out: Growth inhibition (%)
HCC-2998 = assay: NCI-60 SRB screen; format: cell-based, human; conditions: Homo sapiens; single dose 10^−5 M; HCC-2998, Colon cancer; read-out: Growth inhibition (%)
HCT-116 = assay: NCI-60 SRB screen; format: cell-based, human; conditions: Homo sapiens; single dose 10^−5 M; HCT-116, Colon cancer; read-out: Growth inhibition (%)
HCT-15 = assay: NCI-60 SRB screen; format: cell-based, human; conditions: Homo sapiens; single dose 10^−5 M; HCT-15, Colon cancer; read-out: Growth inhibition (%)
HT-29 = assay: NCI-60 SRB screen; format: cell-based; conditions: Homo sapiens; single dose 10^−5 M; HT-29, Colon cancer; read-out: Growth inhibition (%)
KM12 = assay: NCI-60 SRB screen; format: cell-based, human; conditions: Homo sapiens; single dose 10^−5 M; KM12, Colon cancer; read-out: Growth inhibition (%)
SW-620 = assay: NCI-60 SRB screen; format: cell-based; conditions: Homo sapiens; single dose 10^−5 M; SW-620, Colon cancer; read-out: Growth inhibition (%)
SF-268 = assay: NCI-60 SRB screen; format: cell-based, human; conditions: Homo sapiens; single dose 10^−5 M; SF-268, CNS cancer; read-out: Growth inhibition (%)
SF-295 = assay: NCI-60 SRB screen; format: cell-based, human; conditions: Homo sapiens; single dose 10^−5 M; SF-295, CNS cancer; read-out: Growth inhibition (%)
LOX IMVI = assay: NCI-60 SRB screen; format: cell-based, human; conditions: Homo sapiens, single dose 10^−5 M, Melanoma, read-out: Growth inhibition (%)
MALME-3M = assay: NCI-60 SRB screen; format: cell-based, human; conditions: Homo sapiens, single dose 10^−5 M, Melanoma, read-out: Growth inhibition (%)
M14 = assay: NCI-60 SRB screen; format: cell-based, human; conditions: Homo sapiens; single dose 10^−5 M; M14, Melanoma; read-out: Growth inhibition (%)
MDA-MB-435 = assay: NCI-60 SRB screen; format: cell-based; conditions: Homo sapiens, MDA-MB-435, read-out: Growth inhibition (%)
SK-MEL-2 = assay: NCI-60 SRB screen; format: cell-based, human; conditions: Homo sapiens; single dose 10^−5 M; SK-MEL-2, Melanoma; read-out: Growth inhibition (%)
SK-MEL-28 = assay: NCI-60 SRB screen; format: cell-based; conditions: Homo sapiens; single dose 10^−5 M; SK-MEL-28, Melanoma; read-out: Growth inhibition (%)
SK-MEL-5 = assay: NCI-60 SRB screen; format: cell-based, human; conditions: Homo sapiens; single dose 10^−5 M; SK-MEL-5, Melanoma; read-out: Growth inhibition (%)
UACC-257 = assay: NCI-60 SRB screen; format: cell-based, human; conditions: Homo sapiens; single dose 10^−5 M; UACC-257, Melanoma; read-out: Growth inhibition (%)
UACC-62 = assay: NCI-60 SRB screen; format: cell-based, human; conditions: Homo sapiens; single dose 10^−5 M; UACC-62, Melanoma; read-out: Growth inhibition (%)
IGROV1 = assay: NCI-60 SRB screen; format: cell-based, human; conditions: Homo sapiens, IGROV-1; single dose 10^−5 M; IGROV1, Ovarian cancer; read-out: Growth inhibition (%)
OVCAR-3 = assay: NCI-60 SRB screen; format: cell-based, human; conditions: Homo sapiens; single dose 10^−5 M; OVCAR-3, Ovarian cancer; read-out: Growth inhibition (%)
OVCAR-4 = assay: NCI-60 SRB screen; format: cell-based, human; conditions: Homo sapiens; single dose 10^−5 M; OVCAR-4, Ovarian cancer; read-out: Growth inhibition (%)
OVCAR-8 = assay: NCI-60 SRB screen; format: cell-based, human; conditions: Homo sapiens; single dose 10^−5 M; OVCAR-8, Ovarian cancer; read-out: Growth inhibition (%)
NCI/ADR-RES = assay: NCI-60 SRB screen; format: cell-based, human; conditions: Homo sapiens, single dose 10^−5 M, Ovarian cancer, read-out: Growth inhibition (%)
786-0 = assay: NCI-60 SRB screen; format: cell-based; conditions: Homo sapiens; single dose 10^−5 M; 786-0, Renal cancer; read-out: Growth inhibition (%)
ACHN = assay: NCI-60 SRB screen; format: cell-based; conditions: Homo sapiens, single dose 10^−5 M, Renal cancer, read-out: Growth inhibition (%)
CAKI-1 = assay: NCI-60 SRB screen; format: cell-based, human; conditions: Homo sapiens; single dose 10^−5 M; CAKI-1, Renal cancer; read-out: Growth inhibition (%)
RXF 393 = assay: NCI-60 SRB screen; format: cell-based, human; conditions: Homo sapiens; single dose 10^−5 M; RXF 393, Renal cancer; read-out: Growth inhibition (%)
SN12C = assay: NCI-60 SRB screen; format: cell-based, human; conditions: Homo sapiens, SN12C; single dose 10^−5 M; SN 12 C, Renal cancer; read-out: Growth inhibition (%)
TK-10 = assay: NCI-60 SRB screen; format: cell-based, human; conditions: Homo sapiens; single dose 10^−5 M; TK-10, Renal cancer; read-out: Growth inhibition (%)
UO-31 = assay: NCI-60 SRB screen; format: cell-based, human; conditions: Homo sapiens; single dose 10^−5 M; UO-31, Renal cancer; read-out: Growth inhibition (%)
[1] = test system: panel of 60 cancer cell lines; assay: NCI-60 SRB screen, mean or range over the panel; format: cell-based, human; conditions: Homo sapiens; mean over the cell lines; single dose 10^−5 M; read-out: Mean growth inhibition (%)

N#CC1=C(Nc2ccccc2F)NC(c2cccc([N+](=O)[O-])c2)c2sc3c(F)cccc3c21 (stereo not drawn) [Compound 10, 4-Cyano-8-fluoro-3((2-fluorophenyl)amino)-1–(3-nitrophenyl)-1,2-dihydro[1]benzothieno[2,3-c]pyridine]
inhibition at 10 µM (CCRF-CEM): 2.96%
inhibition at 10 µM (HL-60(TB)): -13.1%
inhibition at 10 µM (K-562): 2.72%
inhibition at 10 µM (MOLT-4): 6.48%
inhibition at 10 µM (SR): 13%
inhibition at 10 µM (A549/ATCC): -7.45%
inhibition at 10 µM (EKVX): 9.27%
inhibition at 10 µM (HOP-62): 8.27%
inhibition at 10 µM (HOP-92): 9.6%
inhibition at 10 µM (NCI-H226): 12.8%
inhibition at 10 µM (NCI-H23): -1.96%
inhibition at 10 µM (NCI-H322M): -0.11%
inhibition at 10 µM (NCI-H460): -1.1%
inhibition at 10 µM (NCI-H522): -2.13%
inhibition at 10 µM (COLO 205): -13.3%
inhibition at 10 µM (HCC-2998): -20.3%
inhibition at 10 µM (HCT-116): 3.44%
inhibition at 10 µM (HCT-15): -5.46%
inhibition at 10 µM (HT-29): -14.2%
inhibition at 10 µM (KM12): 0.14%
inhibition at 10 µM (SW-620): 2.45%
inhibition at 10 µM (SF-268): 4.7%
inhibition at 10 µM (SF-295): -4.19%
inhibition at 10 µM (LOX IMVI): 3.26%
inhibition at 10 µM (MALME-3M): -15.1%
inhibition at 10 µM (M14): 1.68%
inhibition at 10 µM (MDA-MB-435): -4.45%
inhibition at 10 µM (SK-MEL-2): 0.67%
inhibition at 10 µM (SK-MEL-28): -11%
inhibition at 10 µM (SK-MEL-5): -19.6%
inhibition at 10 µM (UACC-257): -23.2%
inhibition at 10 µM (UACC-62): 6.75%
inhibition at 10 µM (IGROV1): 16.1%
inhibition at 10 µM (OVCAR-3): -1.64%
inhibition at 10 µM (OVCAR-4): -3.9%
inhibition at 10 µM (OVCAR-8): -6.58%
inhibition at 10 µM (NCI/ADR-RES): -8.27%
inhibition at 10 µM (786-0): -12.3%
inhibition at 10 µM (ACHN): 9.97%
inhibition at 10 µM (CAKI-1): 21.1%
inhibition at 10 µM (RXF 393): -5.32%
inhibition at 10 µM (SN12C): 0.49%
inhibition at 10 µM (TK-10): -55.4%
inhibition at 10 µM (UO-31): 31.2%
inhibition at 10 µM [1]: -0.095%

Reference: PMC8330742, “New benzothieno[2,3-c]pyridines as non-steroidal CYP17 inhibitors: design, synthesis, anticancer screening, apoptosis induction, and in silico ADME profile studies” (Journal of Enzyme Inhibition and Medicinal Chemistry, 2021)
